{
  "source": "patent US8129398B2",
  "about": "(priority 2008, dated 2012)",
  "data": [
    {"target": "T1, HIV-integrase (Human immunodeficiency virus type 1 group M subtype B, UniProt P12497)", "T1 construct": "Recombinant integrase (0.26 ng) was incubated with the beads", "assay": "HIV-Integrase Inhibition Activity (SPA bead integration assay with P33 labeled target DNA)", "format": "biochemical", "details": "in vitro activity, recombinant integrase, class symbols", "outline": "(§1)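 Biotinylated substrate DNA on streptavidin SPA beads loaded with recombinant integrase (90 min, 37° C), washed, then inhibitor plus 0.1 fmol P33-labeled target DNA added. Reaction stopped with 10 mM EDTA; integration measured as CPM by scintillation, giving IC50 ranks.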", "units": {"IC50": "nM"}, "values": [
      {"smiles": "CC(=O)N[C@H]1c2nc(C(=O)NCc3ccc(F)cc3)c(O)c(=O)n2C[C@H]2CC[C@]1(C)C2(C)C", "note": "[Example 184, (7S,10R,11R)-11-(Acetylamino)-N-(4-fluorobenzyl)-3-hydroxy-10,12,12-trimethyl-4-oxo-6,7,8,9,10,11-hexahydro-4H-7,10-methanopyrimido[1,2-a]azocine-2-carboxamide]", "IC50": "10 to 100"}
    ]},
    {"target": "T1, HIV-integrase", "assay": "HIV-Integrase Inhibition Activity (SPA bead integration assay with P33 labeled target DNA)", "format": "biochemical", "details": "recombinant integrase, class symbols; read-out: in vitro activity", "outline": "as §1", "units": {"IC50": "nM"}, "values": [
      {"smiles": "CN(CCF)C(=O)C(=O)NC12CCC(CCn3c1nc(C(=O)NCc1ccc(F)cc1)c(O)c3=O)C2", "note": "(centres unmarked) [Example 209, Ethanediamide, N-(2-fluoroethyl)-N′-[2-[[[(4-fluorophenyl)methyl]amino]carbonyl-7,8,9,10-tetrahydro-3-hydroxy-4-oxo-8,11-methano-4H-pyrimido[1,2-a]azocin-1](6H)-yl]-N-methyl]", "IC50": "< 10"},
      {"smiles": "Cc1cc(CNC(=O)c2nc3n(c(=O)c2O)CC2CCC3(NC(=O)[C@H]3CCN(C(=O)c4cc(C)n(C)n4)C3)CC2)ccc1F", "note": "[Example 301, 7,10-Ethanopyrimido[1,2-a]azepine-2-carboxamide, 10-[[[(3S)-1-[(1,5-dimethyl-1H-pyrazol-3-yl)carbonyl]-3-pyrrolidinyl]carbonyl]amino]-N-[(4-fluoro-3-methylphenyl)methyl]-4,6,7,8,9,10-hexahydro-3-hydroxy-4-oxo-]", "IC50": "10 to 100"},
      {"smiles": "Cc1cc(CNC(=O)c2nc3n(c(=O)c2O)CC2CCC3(NS(=O)(=O)c3cn(C)c(=O)n(C)c3=O)CC2)ccc1F", "note": "[Example 293, 7,10-Ethanopyrimido[1,2-a]azepine-2-carboxamide, N-[(4-fluoro-3-methylphenyl)methyl]-4,6,7,8,9,10-hexahydro-3-hydroxy-4-oxo-10-[[(1,2,3,4-tetrahydro-1,3-dimethyl-2,4-dioxo-5-pyrimidinyl)sulfonyl]amino]-]", "IC50": "< 10"},
      {"smiles": "Cn1nc(C(C)(C)C)cc1C(=O)NC12CCC(CC1)n1c2nc(C(=O)NCc2ccc(F)cc2)c(O)c1=O", "note": "[Example 15, 6,9-Ethano-4H-pyrido[1,2-a]pyrimidine-2-carboxamide, 9-[[[3-(1,1-dimethylethyl)-1-methyl-1H-pyrazol-5-yl]carbonyl]amino]-N-[(4-fluorophenyl)methyl]-6,7,8,9-tetrahydro-3-hydroxy-4-oxo-]", "IC50": "< 10"},
      {"smiles": "Cc1cc(C(=O)NC23CCC(CC2)Cn2c3nc(C(=O)NCc3ccc(F)cc3)c(O)c2=O)nn1C", "note": "[Example 24, 10-(((1,5-Dimethyl-1H-pyrazol-3-yl)carbonyl)amino)-N-(4-fluorobenzyl)-3-hydroxy-4-oxo-4,6,7,8,9,10-hexahydro-7,10-ethanopyrimido[1,2-a]azepine-2-carboxamide]", "IC50": "< 10"},
      {"smiles": "CN(C)C(=O)C(=O)N(C)C12CCC(CC1)Cn1c2nc(C(=O)NCc2ccc(F)c(F)c2)c(O)c1=O", "note": "[Example 159, N-(2-((3,4-Difluorobenzyl)carbamoyl)-3-hydroxy-4-oxo-6,7,8,9-tetrahydro-7,10-ethanopyrimido[1,2-a]azepin-10(4H)-yl)-N,N′,N′-trimethylethanediamide]", "IC50": "< 10"},
      {"smiles": "CN(C)C(=O)C(=O)NC12CCC(CC1)Cn1c2nc(C(=O)NCCc2ccc(F)cc2)c(O)c1=O", "note": "[Example 358]", "IC50": "10 to 100"},
      {"smiles": "CN(C)C(=O)C(=O)NC12CCC(CC1)Cn1c2nc(C(=O)NCc2ncc(F)cc2F)c(O)c1=O", "note": "[Example 123, N′-(2-(((3,5-Difluoro-2-pyridinyl)methyl)carbamoyl)-3-hydroxy-4-oxo-6,7,8,9-tetrahydro-7,10-ethanopyrimido[1,2-a]azepin-10(4H)-yl)-N,N-dimethylethanediamide]", "IC50": "10 to 100"},
      {"smiles": "O=C(NC12CCC(CCn3c1nc(C(=O)NCc1ccc(F)cc1)c(O)c3=O)C2)C(=O)N1CCC(F)CC1", "note": "(centres unmarked) [Example 203, 8,1,1-Methano-4H-pyrimido[1,2-a]azocine-2-carboxamide, N-[(4-fluorophenyl)methyl]-11-[[2-(4-fluoro-1-piperidinyl)-1,2-dioxoethyl]amino]-6,7,8,9,10,11-hexahydro-3-hydroxy-4-oxo-]", "IC50": "< 10"},
      {"smiles": "Cc1cc(CNC(=O)c2nc3n(c(=O)c2O)CC2CCC3(NC(=O)c3cccnc3)CC2)ccc1F", "note": "[Example 312, 7,10-Ethanopyrimido[1,2-a]azepine-2-carboxamide, N-[(4-fluoro-3-methylphenyl)methyl]-4,6,7,8,9,10-hexahydro-3-hydroxy-4-oxo-10-[(3-pyridinylcarbonyl)amino]-]", "IC50": "< 10"},
      {"smiles": "CN(C)C(=O)C(=O)NC12CCC(CC1)Cn1c2nc(C(=O)NCc2ccc(N)cc2)c(O)c1=O", "note": "[Example 385]", "IC50": "10 to 100"},
      {"smiles": "COCC1(C(=O)NC23CCC(CC2)Cn2c3nc(C(=O)NCc3ccc(F)c(C)c3)c(O)c2=O)CC1", "note": "[Example 302, 7,10-Ethanopyrimido[1,2-a]azepine-2-carboxamide, N-[(4-fluoro-3-methylphenyl)methyl]-4,6,7,8,9,10-hexahydro-3-hydroxy-10-[[[1-(methoxymethyl)cyclopropyl]carbonyl]amino]-4-oxo-]", "IC50": "< 10"},
      {"smiles": "CN(C(=O)C(=O)N1CCCC1)C12CCC(CC1)Cn1c2nc(C(=O)NCc2ccc(F)cc2)c(O)c1=O", "note": "[Example 153, N-(4-Fluorobenzyl)-3-hydroxy-10-(methyl(oxo(1-pyrrolidinyl)acetyl)amino)-4-oxo-4,6,7,8,9,10-hexahydro-7,10-ethanopyrimido[1,2-a]azepine-2-carboxamide]", "IC50": "< 10"},
      {"smiles": "Cc1cc(CNC(=O)c2nc3n(c(=O)c2O)CC2CCC3(N(C)C(=O)C(=O)N3CC[C@@H](F)C3)CC2)ccc1F", "note": "[Example 164, N-(4-Fluoro-3-methylbenzyl)-10-((((3R)-3-fluoro-1-pyrrolidinyl)(oxo)acetyl)(methyl)amino)-3-hydroxy-4-oxo-4,6,7,8,9,10-hexahydro-7,10-ethanopyrimido[1,2-a]azepine-2-carboxamide]", "IC50": "< 10"},
      {"smiles": "CC(C)OC(=O)N1CCCC1C(=O)NC12CCC(CC1)Cn1c2nc(C(=O)NCc2ccc(F)cc2)c(O)c1=O", "note": "(centres unmarked) [Example 405]", "IC50": "< 10"},
      {"smiles": "CN(C)C(=O)C(=O)N1CCC[C@H]1C(=O)NC12CCC(CC1)Cn1c2nc(C(=O)NCc2ccc(F)cc2)c(O)c1=O", "note": "[Example 269, 7,10-Ethanopyrimido[1,2-a]azepine-2-carboxamide, 10-[[[(2S)-1-[2-(dimethylamino)-1,2-dioxoethyl]-2-pyrrolidinyl]carbonyl]amino]-N-[(4-fluorophenyl)methyl]-4,6,7,8,9,10-hexahydro-3-hydroxy-4-oxo-]", "IC50": "< 10"},
      {"smiles": "NC12CCC(CC1)n1c2nc(C(=O)NCc2ccc(F)cc2)c(O)c1=O", "note": "[Example 11, 6,9-Ethano-4H-pyrido[1,2-a]pyrimidine-2-carboxamide, 9-amino-N-[(4-fluorophenyl)methyl]-6,7,8,9-tetrahydro-3-hydroxy-4-oxo-]", "IC50": "10 to 100"},
      {"smiles": "CC(=O)NC12CCCC(Cn3c1nc(C(=O)NCc1ccc(F)cc1)c(O)c3=O)C2", "note": "(centres unmarked) [Example 187, 7,11-Methano-4H-pyrimido[1,2-a]azocine-2-carboxamide, 11-(acetylamino)-N-[(4-fluorophenyl)methyl]-6,7,8,9,10,11-hexahydro-3-hydroxy-4-oxo-]", "IC50": "< 10"},
      {"smiles": "CN(C)C(=O)C(=O)NC12CCC(CC1)Cn1c2nc(C(=O)NCCCc2ccc(F)cc2)c(O)c1=O", "note": "[Example 130, N′-(2-((3-(4-Fluorophenyl)propyl)carbamoyl)-3-hydroxy-4-oxo-6,7,8,9-tetrahydro-7,10-ethanopyrimido[1,2-a]azepin-10(4H)-yl)-N,N-dimethylethanediamide]", "IC50": "< 10"},
      {"smiles": "Cc1cc(C(=O)NC23CCC(CC2)Cn2c3nc(C(=O)NCc3ccc(F)cc3)c(O)c2=O)nn1C(C)(C)C", "note": "[Example 240]", "IC50": "< 10"},
      {"smiles": "CN(C)C12CCC(Cn3c1nc(C(=O)NCc1ccc(F)cc1)c(O)c3=O)C2", "note": "(centres unmarked) [Example 195, 7,10-Methanopyrimido[1,2-a]azepine-2-carboxamide, 10-(dimethylamino)-N-[(4-fluorophenyl)methyl]-4,6,7,8,9,10-hexahydro-3-hydroxy-4-oxo-]", "IC50": "10 to 100"},
      {"smiles": "O=C(NC12CCC(CC1)Cn1c2nc(C(=O)NCc2ccc(F)cc2)c(O)c1=O)C(=O)N1CCC(O)CC1", "note": "[Example 63, N-(4-Fluorobenzyl)-3-hydroxy-10-(((4-hydroxy-1-piperidinyl)(oxo)acetyl)amino)-4-oxo-4,6,7,8,9,10-hexahydro-7,10-ethanopyrimido[1,2-a]azepine-2-carboxamide]", "IC50": "< 10"},
      {"smiles": "CC(=O)NC12CCC(CC1)Cn1c2nc(C(=O)NCc2ccc(F)cc2)c(O)c1=O", "note": "[Example 20, 10-(Acetylamino)-N-(4-fluorobenzyl)-3-hydroxy-4-oxo-4,6,7,8,9,10-hexahydro-7,10-ethanopyrimido[1,2-a]azepine-2-carboxamide]", "IC50": "< 10"},
      {"smiles": "O=C(NCc1ccc(F)cc1)c1nc2n(c(=O)c1O)CC1CCC2(NC(=O)C2CCCN2S(=O)(=O)c2ncn[nH]2)CC1", "note": "(centres unmarked) [Example 409]", "IC50": "< 10"},
      {"smiles": "Cc1cc(CNC(=O)c2nc3n(c(=O)c2O)CC2CCC3(NC(=O)C(C)(C)n3cc(C(=O)N4CCN(C)CC4)nn3)CC2)ccc1F", "note": "[Example 288, 7,10-Ethanopyrimido[1,2-a]azepine-2-carboxamide, N-[(4-fluoro-3-methylphenyl)methyl]-4,6,7,8,9,10-hexahydro-3-hydroxy-10-[[2-methyl-2-[4-[(4-methyl-1-piperazinyl)carbonyl]-1H-1,2,3-triazol-1-yl]-1-oxopropyl]amino]-4-oxo-]", "IC50": "< 10"},
      {"smiles": "CN(C)C(=O)C(=O)N(C)C12CCC(CCn3c1nc(C(=O)NCc1ccc(F)cc1)c(O)c3=O)C2", "note": "(centres unmarked) [Example 211, Ethanediamide, N-[2-[[[(4-fluorophenyl)methyl]amino]carbonyl]-7,8,9,10-tetrahydro-3-hydroxy-4-oxo-8,11-methano-4H-pyrimido[1,2-a]azocin-11(6H)-yl]-N,N′,N′-trimethyl-]", "IC50": "< 10"},
      {"smiles": "CN(C)C(=O)C(=O)NC12CCC(CC1)Cn1c2nc(C(=O)NCCc2ccc(Cl)cc2)c(O)c1=O", "note": "[Example 345]", "IC50": "10 to 100"},
      {"smiles": "C=C[C@@H]1C[C@]1(NC(C)=O)C(=O)NC12CCC(CC1)Cn1c2nc(C(=O)NCc2ccc(F)cc2)c(O)c1=O", "note": "[Example 277, 7,10-Ethanopyrimido[1,2-a]azepine-2-carboxamide, 10-[[[(1R,2S)-1-(acetylamino)-2-ethenylcyclopropyl]carbonyl]amino]-N-[(4-fluorophenyl)methyl]-4,6,7,8,9,10-hexahydro-3-hydroxy-4-oxo-]", "IC50": "10 to 100"}
    ]}
  ]
}
